Experimental data reported in paper PMC3445516 (PLoS ONE, 2012).
Like-named read-outs stand apart in the source and are kept apart here. Each block holds one molecule with its values, some of them ahead of it.

Columns and labels:
Test in all cases: Ambit kinase profiling, competition binding
CAMKIIα = molecular target: T1, CAMKIIα (Homo sapiens, UniProt Q9UQM7); settings: for competition: CAMKIIα, 10 µM
T1 construct: purchased Ambit Biosciences (KINOMEscan)
Procedure: (§1) Also included in the kinase profile are four isoforms of PKC (δ, ε, η, θ) and eight isoforms of CAMKs (CAMKIα, δ, γ; CAMKIIα, β, δ, γ; CAMK4).
(§2) The global kinase profiling experiment was performed by Ambit Biosciences.

YES = molecular target: T2, YES (Homo sapiens, UniProt P07947)
T2 construct: purchased Ambit Biosciences (KINOMEscan)
Procedure: as §1, §2

EGFR(G719C) = molecular target: T3, EGFR(G719C) (Homo sapiens, UniProt P00533, G719C); settings: for % Competition: 10 µM
T3 construct: purchased Ambit Biosciences (KINOMEscan)
Procedure: as §1, §2

RET = molecular target: T4, RET (Homo sapiens, UniProt P07949)
T4 construct: purchased Ambit Biosciences (KINOMEscan)
Procedure: as §1, §2

GAK = molecular target: T5, GAK (Homo sapiens, UniProt O14976)
T5 construct: purchased Ambit Biosciences (KINOMEscan)
T5 sequence (O14976 1-1311): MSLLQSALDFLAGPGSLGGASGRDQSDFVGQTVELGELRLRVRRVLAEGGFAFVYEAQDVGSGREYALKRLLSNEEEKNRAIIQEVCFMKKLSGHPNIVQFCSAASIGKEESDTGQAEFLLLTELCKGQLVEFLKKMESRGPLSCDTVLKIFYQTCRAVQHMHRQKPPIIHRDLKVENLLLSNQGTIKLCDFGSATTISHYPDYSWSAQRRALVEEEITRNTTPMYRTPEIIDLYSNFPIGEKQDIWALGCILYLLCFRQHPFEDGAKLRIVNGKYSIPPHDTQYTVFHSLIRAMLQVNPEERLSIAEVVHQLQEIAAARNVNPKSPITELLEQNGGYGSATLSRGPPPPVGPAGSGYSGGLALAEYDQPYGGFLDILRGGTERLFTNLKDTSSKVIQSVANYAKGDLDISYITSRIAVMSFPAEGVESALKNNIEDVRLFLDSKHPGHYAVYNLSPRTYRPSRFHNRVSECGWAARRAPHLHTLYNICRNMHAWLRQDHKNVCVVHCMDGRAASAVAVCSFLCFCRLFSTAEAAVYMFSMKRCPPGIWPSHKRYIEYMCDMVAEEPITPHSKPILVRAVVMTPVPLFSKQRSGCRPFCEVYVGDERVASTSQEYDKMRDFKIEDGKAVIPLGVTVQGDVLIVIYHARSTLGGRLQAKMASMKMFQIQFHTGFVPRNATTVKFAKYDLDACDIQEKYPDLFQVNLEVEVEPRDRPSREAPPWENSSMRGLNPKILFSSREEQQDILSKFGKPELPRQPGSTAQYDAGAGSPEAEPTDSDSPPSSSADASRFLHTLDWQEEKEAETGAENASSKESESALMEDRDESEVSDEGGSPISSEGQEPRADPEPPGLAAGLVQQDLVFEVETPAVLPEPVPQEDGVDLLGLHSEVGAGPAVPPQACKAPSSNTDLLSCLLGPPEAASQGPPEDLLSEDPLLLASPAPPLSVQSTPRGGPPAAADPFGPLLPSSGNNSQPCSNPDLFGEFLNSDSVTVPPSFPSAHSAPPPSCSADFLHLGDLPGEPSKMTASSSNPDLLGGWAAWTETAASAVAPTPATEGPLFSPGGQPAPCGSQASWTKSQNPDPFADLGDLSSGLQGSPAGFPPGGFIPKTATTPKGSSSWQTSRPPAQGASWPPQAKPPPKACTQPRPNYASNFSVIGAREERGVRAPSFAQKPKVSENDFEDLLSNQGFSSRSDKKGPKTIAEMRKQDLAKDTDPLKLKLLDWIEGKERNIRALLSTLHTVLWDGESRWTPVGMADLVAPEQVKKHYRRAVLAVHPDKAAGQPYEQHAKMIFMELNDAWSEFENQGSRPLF
Procedure: as §1, §2

ERK1 = molecular target: T6, ERK1 (Homo sapiens, UniProt P27361)
T6 construct: purchased Ambit Biosciences (KINOMEscan)
Procedure: as §1, §2

CAMK4 = molecular target: T7, CAMK4 (Homo sapiens, UniProt Q16566); settings: for competition: 10 µM
T7 construct: purchased Ambit Biosciences (KINOMEscan)
T7 sequence (Q16566 1-473): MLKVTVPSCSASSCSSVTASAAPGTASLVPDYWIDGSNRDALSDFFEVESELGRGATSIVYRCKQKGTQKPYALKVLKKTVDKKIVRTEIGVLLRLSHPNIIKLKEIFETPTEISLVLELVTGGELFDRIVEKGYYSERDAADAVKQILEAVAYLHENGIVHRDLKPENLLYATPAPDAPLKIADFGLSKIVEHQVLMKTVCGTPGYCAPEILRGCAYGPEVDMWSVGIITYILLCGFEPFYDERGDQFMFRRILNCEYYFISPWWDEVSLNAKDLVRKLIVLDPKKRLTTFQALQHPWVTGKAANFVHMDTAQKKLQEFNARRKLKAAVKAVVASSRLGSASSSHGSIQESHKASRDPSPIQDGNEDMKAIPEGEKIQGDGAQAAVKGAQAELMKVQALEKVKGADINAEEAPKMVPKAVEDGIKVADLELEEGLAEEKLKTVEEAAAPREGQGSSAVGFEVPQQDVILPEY
Procedure: as §1, §2

TNIK = molecular target: T8, TNIK (Homo sapiens, UniProt Q9UKE5)
T8 construct: purchased Ambit Biosciences (KINOMEscan)
Procedure: as §1, §2

SLK = molecular target: T9, SLK (Homo sapiens, UniProt Q9H2G2)
T9 construct: purchased Ambit Biosciences (KINOMEscan)
Procedure: as §1, §2

TGFBR2 = molecular target: T10, TGFBR2 (Homo sapiens, UniProt P37173)
T10 construct: purchased Ambit Biosciences (KINOMEscan)
Procedure: as §1, §2

GSK3A = molecular target: T11, GSK3A (Homo sapiens, UniProt P49840)
T11 construct: purchased Ambit Biosciences (KINOMEscan)
Procedure: as §1, §2

EGFR(L858R) = molecular target: T12, EGFR(L858R) (Homo sapiens, UniProt P00533, L858R); settings: for % Competition: 10 µM
T12 construct: purchased Ambit Biosciences (KINOMEscan)
Procedure: as §1, §2

T2 sequence (P07947 whole entry): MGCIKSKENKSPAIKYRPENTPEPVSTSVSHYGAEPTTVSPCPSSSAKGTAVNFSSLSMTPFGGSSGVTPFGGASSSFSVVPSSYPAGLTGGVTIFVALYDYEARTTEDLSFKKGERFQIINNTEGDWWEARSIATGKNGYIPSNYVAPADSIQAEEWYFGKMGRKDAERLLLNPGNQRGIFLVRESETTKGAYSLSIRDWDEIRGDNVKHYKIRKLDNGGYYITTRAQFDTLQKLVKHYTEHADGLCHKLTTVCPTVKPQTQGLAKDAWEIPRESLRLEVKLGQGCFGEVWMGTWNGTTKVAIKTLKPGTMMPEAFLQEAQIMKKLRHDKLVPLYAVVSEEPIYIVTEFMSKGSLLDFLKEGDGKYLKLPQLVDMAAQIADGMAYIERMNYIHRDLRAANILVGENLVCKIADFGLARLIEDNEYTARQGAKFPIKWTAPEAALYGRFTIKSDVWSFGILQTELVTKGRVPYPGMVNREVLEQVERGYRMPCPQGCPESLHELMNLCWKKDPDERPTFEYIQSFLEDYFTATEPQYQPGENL
T8 sequence (Q9UKE5 whole entry): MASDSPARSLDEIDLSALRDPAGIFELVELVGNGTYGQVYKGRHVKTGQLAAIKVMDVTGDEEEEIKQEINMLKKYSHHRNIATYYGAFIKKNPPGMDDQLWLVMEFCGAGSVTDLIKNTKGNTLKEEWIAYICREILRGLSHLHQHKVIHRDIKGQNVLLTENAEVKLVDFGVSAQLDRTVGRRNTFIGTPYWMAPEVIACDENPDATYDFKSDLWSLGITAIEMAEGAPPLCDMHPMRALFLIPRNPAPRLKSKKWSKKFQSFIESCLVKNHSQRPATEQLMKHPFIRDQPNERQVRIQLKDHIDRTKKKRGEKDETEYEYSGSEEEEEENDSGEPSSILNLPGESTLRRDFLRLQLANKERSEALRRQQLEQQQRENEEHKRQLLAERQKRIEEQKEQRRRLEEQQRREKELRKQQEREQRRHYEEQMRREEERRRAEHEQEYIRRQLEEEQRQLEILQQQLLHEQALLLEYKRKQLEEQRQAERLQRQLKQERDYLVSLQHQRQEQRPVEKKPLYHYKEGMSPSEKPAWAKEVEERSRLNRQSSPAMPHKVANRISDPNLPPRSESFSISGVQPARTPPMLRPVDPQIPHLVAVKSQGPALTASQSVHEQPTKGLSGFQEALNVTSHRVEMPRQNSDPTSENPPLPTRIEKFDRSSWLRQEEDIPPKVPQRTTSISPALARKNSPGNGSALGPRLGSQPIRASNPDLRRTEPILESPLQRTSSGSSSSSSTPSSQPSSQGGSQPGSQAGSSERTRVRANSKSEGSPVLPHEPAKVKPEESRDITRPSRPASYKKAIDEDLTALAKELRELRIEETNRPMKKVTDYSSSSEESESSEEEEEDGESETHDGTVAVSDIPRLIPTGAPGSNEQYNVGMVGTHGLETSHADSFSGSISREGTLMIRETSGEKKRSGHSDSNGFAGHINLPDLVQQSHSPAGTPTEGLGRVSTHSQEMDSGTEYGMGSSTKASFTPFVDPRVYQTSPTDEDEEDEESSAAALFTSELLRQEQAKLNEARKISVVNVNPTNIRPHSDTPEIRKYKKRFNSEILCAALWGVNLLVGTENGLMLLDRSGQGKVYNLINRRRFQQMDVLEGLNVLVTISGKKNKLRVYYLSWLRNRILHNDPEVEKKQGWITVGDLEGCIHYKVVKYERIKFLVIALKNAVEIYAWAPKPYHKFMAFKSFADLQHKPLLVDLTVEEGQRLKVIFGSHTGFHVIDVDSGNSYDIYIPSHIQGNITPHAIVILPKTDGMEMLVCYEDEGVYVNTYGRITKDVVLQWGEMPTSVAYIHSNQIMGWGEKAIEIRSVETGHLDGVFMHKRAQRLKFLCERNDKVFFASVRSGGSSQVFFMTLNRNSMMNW
T1 sequence (Q9UQM7 whole entry): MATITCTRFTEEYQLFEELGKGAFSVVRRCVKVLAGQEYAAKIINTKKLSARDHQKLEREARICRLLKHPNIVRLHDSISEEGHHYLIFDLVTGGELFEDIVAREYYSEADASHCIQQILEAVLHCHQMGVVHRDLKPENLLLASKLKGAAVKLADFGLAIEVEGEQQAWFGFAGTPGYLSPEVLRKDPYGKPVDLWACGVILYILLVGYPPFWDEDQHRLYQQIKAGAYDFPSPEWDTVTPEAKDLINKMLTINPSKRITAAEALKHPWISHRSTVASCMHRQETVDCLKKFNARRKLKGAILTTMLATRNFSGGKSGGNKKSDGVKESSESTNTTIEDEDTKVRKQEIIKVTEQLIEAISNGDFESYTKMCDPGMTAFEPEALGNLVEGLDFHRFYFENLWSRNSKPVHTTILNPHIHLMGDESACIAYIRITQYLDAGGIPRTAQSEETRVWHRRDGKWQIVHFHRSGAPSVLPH
T10 sequence (P37173 23-567): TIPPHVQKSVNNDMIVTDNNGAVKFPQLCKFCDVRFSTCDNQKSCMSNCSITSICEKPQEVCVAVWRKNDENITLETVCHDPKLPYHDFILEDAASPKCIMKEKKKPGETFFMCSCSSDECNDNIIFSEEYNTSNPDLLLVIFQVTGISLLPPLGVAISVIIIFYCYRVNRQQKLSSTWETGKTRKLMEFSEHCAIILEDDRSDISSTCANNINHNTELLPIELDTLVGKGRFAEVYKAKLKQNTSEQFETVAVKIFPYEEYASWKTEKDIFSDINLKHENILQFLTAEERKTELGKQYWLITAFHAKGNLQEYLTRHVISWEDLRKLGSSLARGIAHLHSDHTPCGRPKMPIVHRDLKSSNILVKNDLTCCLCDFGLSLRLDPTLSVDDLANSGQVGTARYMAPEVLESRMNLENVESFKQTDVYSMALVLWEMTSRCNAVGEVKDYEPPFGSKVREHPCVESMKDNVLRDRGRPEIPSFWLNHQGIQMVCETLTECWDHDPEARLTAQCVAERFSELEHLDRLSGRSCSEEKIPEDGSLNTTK
T9 sequence (Q9H2G2 whole entry): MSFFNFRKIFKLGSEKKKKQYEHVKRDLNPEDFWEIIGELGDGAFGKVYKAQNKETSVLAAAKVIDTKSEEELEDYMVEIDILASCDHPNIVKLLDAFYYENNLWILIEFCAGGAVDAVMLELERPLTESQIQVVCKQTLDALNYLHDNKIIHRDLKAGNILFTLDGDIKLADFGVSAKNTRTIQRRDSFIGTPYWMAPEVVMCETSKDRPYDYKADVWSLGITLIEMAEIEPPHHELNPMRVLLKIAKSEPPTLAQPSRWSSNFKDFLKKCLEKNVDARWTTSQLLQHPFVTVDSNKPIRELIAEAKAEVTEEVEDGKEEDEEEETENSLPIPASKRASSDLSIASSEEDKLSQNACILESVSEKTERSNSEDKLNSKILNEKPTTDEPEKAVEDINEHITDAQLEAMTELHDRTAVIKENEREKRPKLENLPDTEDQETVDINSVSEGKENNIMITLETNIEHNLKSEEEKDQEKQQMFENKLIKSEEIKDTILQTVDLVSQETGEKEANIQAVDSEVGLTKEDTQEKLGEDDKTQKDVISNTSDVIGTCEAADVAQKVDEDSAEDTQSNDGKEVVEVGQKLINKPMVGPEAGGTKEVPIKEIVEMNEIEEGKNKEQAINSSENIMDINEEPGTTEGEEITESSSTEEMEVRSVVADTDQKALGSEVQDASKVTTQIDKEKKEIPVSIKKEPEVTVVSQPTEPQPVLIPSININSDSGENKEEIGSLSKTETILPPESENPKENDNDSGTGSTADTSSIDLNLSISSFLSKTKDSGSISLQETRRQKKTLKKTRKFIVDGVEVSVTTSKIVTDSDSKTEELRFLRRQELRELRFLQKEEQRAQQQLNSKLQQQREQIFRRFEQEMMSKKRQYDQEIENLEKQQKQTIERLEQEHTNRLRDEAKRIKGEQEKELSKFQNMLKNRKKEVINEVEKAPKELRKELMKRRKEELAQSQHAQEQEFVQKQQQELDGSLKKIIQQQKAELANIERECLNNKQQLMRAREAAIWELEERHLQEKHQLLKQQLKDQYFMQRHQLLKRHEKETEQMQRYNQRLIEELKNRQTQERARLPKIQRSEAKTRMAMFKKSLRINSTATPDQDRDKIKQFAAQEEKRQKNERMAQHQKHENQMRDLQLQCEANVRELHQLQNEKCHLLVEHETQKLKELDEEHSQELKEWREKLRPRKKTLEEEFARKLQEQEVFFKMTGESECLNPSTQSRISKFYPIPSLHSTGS
T11 sequence (P49840 whole entry): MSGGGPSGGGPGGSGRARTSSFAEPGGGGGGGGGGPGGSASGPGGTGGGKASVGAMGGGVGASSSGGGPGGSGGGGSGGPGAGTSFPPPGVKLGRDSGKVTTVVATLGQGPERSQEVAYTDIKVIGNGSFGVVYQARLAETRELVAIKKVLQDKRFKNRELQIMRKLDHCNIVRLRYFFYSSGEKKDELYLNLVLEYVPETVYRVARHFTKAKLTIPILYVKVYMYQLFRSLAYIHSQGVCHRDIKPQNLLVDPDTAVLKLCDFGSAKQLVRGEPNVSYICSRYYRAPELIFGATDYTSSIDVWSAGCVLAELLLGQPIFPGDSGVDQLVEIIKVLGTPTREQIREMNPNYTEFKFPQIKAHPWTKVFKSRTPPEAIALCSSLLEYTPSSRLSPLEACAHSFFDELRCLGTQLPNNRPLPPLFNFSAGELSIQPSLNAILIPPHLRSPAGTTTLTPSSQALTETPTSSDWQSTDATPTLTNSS
T6 sequence (P27361 whole entry): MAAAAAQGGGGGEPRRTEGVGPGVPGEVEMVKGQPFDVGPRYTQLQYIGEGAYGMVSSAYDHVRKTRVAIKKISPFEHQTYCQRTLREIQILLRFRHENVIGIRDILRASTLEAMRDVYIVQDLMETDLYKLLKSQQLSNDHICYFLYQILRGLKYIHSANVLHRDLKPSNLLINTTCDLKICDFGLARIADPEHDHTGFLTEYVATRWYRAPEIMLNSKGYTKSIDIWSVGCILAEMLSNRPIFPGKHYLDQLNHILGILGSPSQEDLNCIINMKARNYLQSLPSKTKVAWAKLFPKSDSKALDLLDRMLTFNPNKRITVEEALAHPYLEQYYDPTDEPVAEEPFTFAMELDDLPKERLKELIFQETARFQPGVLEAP

inhibition at 10 µM (CAMKIIα; CAMK2A, compound concentration 10 uM, read-out: Percent Competition): < 50%
inhibition at 10 µM (YES; YES, compound concentration 10 uM, read-out: Percent Competition): 73%
Percent Competition (EGFR(G719C); compound concentration 10 uM): 99%
inhibition at 10 µM (RET; RET, compound concentration 10 uM, read-out: Percent Competition): 68%
inhibition at 10 µM (GAK; GAK, compound concentration 10 uM, read-out: Percent Competition): 98%
inhibition at 10 µM (ERK1; ERK1, compound concentration 10 uM, read-out: Percent Competition): 80%
inhibition at 10 µM (CAMK4; compound concentration 10 uM, read-out: Percent Competition): < 50%
inhibition at 10 µM (TNIK; TNIK, compound concentration 10 uM, read-out: Percent Competition): 96%
inhibition at 10 µM (SLK; SLK, compound concentration 10 uM, read-out: Percent Competition): 80%
inhibition at 10 µM (TGFBR2; TGFBR2, compound concentration 10 uM, read-out: Percent Competition): 98%
inhibition at 10 µM (GSK3A; GSK3A, compound concentration 10 uM, read-out: Percent Competition): 98%
Percent Competition (EGFR(L858R); compound concentration 10 uM): 98%
SMILES: Fc1ccc(-c2c(-c3ccncc3)[nH]c3nccnc23)cc1 [RO1155697-000-005]

competition (CAMKIIα): < 50%
inhibition at 10 µM (YES; YES, 10 µM, read-out: % Competition): 73%
% Competition (EGFR(G719C)): 99%
inhibition at 10 µM (RET; RET, 10 µM, read-out: % Competition): 68%
inhibition at 10 µM (GAK; GAK, 10 µM, read-out: % Competition): 98%
inhibition at 10 µM (ERK1; ERK1, 10 µM, read-out: % Competition): 80%
competition (CAMK4): < 50%
inhibition at 10 µM (TNIK; TNIK, 10 µM, read-out: % Competition): 96%
inhibition at 10 µM (SLK; SLK, 10 µM, read-out: % Competition): 80%
inhibition at 10 µM (TGFBR2; TGFBR2, 10 µM, read-out: % Competition): 98%
inhibition at 10 µM (GSK3A; GSK3A, 10 µM, read-out: % Competition): 98%
% Competition (EGFR(L858R)): 98%
SMILES: Fc1ccc(-c2c(-c3ccncc3)[nH]c3nccnc23)cc1 [Compound 122]

SMILES: CC(O)CNc1cc(-c2[nH]c3cccnc3c2-c2ccc(F)cc2)ccn1 (stereo not drawn) [Compound 140]
competition (CAMKIIα): < 50%
inhibition at 10 µM (YES; read-out: % Competition): < 50%
% Competition (EGFR(G719C)): 87%
inhibition at 10 µM (RET; read-out: % Competition): < 50%
inhibition at 10 µM (GAK; read-out: % Competition): 98%
inhibition at 10 µM (ERK1; read-out: % Competition): < 50%
competition (CAMK4): < 50%
inhibition at 10 µM (TNIK; read-out: % Competition): < 50%
inhibition at 10 µM (SLK; read-out: % Competition): < 50%
inhibition at 10 µM (TGFBR2; read-out: % Competition): < 50%
inhibition at 10 µM (GSK3A; read-out: % Competition): < 50%
% Competition (EGFR(L858R)): 84%
